Measurements published in patent US20070254882A1, “Sulfamide Derivatives and Pharmaceutical Composition for Upregulation of Lipid Metabolism Comprising Same” (CRYSTAL GENOMICS, INC., priority 2004, published 2007).

Assays:
[1] = target: T1, human PPAR α (Homo sapiens, UniProt Q07869); assay: Exogeneous PPAR α agonist assay (GAL4 DNA binding domain/PPAR α ligand binding domain, luciferase) in 293T cells; assay type: cell-based; set-up: scale not given here; details: 25 μM compound, 48 hours, luciferase activity increase relative to the control
T1 construct: expressed in transfected cells; host or cells: HepG2 (ATCC HB-8065) or 293T cells (ATCC CRL-1573)
T1 sequence (Q07869 239-466 limits assumed): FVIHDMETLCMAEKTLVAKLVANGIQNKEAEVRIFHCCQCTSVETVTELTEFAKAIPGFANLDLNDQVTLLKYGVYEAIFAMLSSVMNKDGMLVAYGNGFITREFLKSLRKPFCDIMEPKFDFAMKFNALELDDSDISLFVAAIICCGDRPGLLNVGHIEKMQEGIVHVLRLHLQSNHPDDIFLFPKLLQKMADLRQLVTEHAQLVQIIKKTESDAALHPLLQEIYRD
Procedure, shortened: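 HepG2 or 293T cells (2×10^4/well) lipofectamine-transfected 3 hours with PPAR α, UAS firefly-luciferase and Renilla-luciferase constructs. Compounds then added at 25 μM final and incubated 48 hours at 37° C. PPAR α activation measured as dual firefly/Renilla luciferase luminescence.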

[2] = target: T1, human PPAR α; assay: Exogeneous PPAR α agonist assay (GAL4 DNA binding domain/PPAR α ligand binding domain, luciferase) in HepG2 cells; assay type: cell-based; details: 25 μM compound, 48 hours, luciferase activity increase relative to the control
Description: Step 1) Exogeneous PPAR α Agonist Assay
Cross-activation assay of the compounds of Examples 1 to 134 against human PPAR α was carried out using a DNA construct of PPAR α including its ligand binding domain and GAL4 DNA binding domain (Sher et al., Biochemistry 32, 5598-5604, 1993) to analyze whether any of the compounds binds to the ligand binding domain of PPAR α expressed by the construct to affect the PPAR α activity. When the GAL4 DNA binding domainm which is fused with PPAR α ligand binding domain, binds to UAS (upstream activation sequence) of firefly-luciferase, the luciferase is expressed. Therefore, the effect of each of the compounds of Examples on PPAR α activation can be evaluated by analyzing the activation of luciferase.
Specifically, 2×10^4 of HepG2 (ATCC HB-8065) or 293T cells (ATCC CRL-1573) were aliquotted into each well of a 96-well plate and cultured for overnight at 37° C. in a CO2 incubator (culture condition: DMEM, 10% FBS and 1% antibiotics).
The transformation of PPAR α DNA was traced as follows. First, a mixture of the following ingredients in amounts per well; Solution A (Promega) containing 50 ng of full length human PPAR α DNA, 50 ng of firefly-luciferase construct, 5 ng of Renilla-luciferase construct, 1.0 μl of PLUS™ reagent, and 8.3 μl of a serum-free medium containing no antibiotics; was prepared and kept at room temperature for 15 min. Solution B, which contained 0.5 μl of Lipofectamine™ reagent and 9.5 μl of serum-free medium without antibiotics per well, and Solution C, which contained 50 μl of serum-free medium per well), were prepared. Solutions A, B and C were mixed together to prepare lipofectamin-DNA complex, and the mixture was kept at room temperature for 15 min. Single layer of cells on each well of a 96-well plate were washed with serum-free DMEM, 70 μl of lipofectamine-DNA complex prepared above was added thereto, the plate was incubated at 37° C. in a 5% CO2 incubator for 3 hours to transform the cells, and […] of a diluted solution of each of the compounds of Examples 1 to 134 per well was added to each well to a final concentration 25 μM, and incubated at 37° C. in a CO2 incubator for 48 hours. Then, the medium was removed, 50 μl of passive lysis buffer (Promega) was added thereto, and the plate was shook at room temperature for 20 min to lysis cells. 40 μl of Luciferase Assay reagent of Dual Luciferase Kit […] per 20 μl of cell lysis buffer was added to the plate, followed by reacting at 20° C. for 8 seconds, and 40 μl of Stop & Glo reagent (Promega) as a stop solution was added thereto to quench the reaction. The luminescence intensities of F-luciferase and R-luciferase were measured with MicroLumat Plus (Berthord Technology).

[3] = system: ob/ob mice; assay: Anti-obesity test: lipid metabolism-related materials and glucose in blood of ob/ob mice; assay type: in vivo; details: 100 mg/kg oral twice a day, 28 days, fasted 16 hours, plasma
Description: In order to evaluate the anti-obesity activity of the inventive compound, B6.V-Lepob/J mice (laboratory animal team of Korea Research Institute of Chemical Technology) were used for tests and lean mice as a control. Ob/ob mice are model animals for insulin-independent diabetes, suitable for studying the effect of an anti-obesity drug.
42 mice weighing 38.6±1.4 g were selected randomly from a pool of ob/ob mice (7-9 weeks old), and divided into groups of 7 mice each. The test was carried out at a constant temperature (24±0.5° C.) and humidity (55±5%) using ventilation system (10-12 times/hour), under a specific pathogen free (SPF) condition created in an automatic on-off cycle of 12 hours.
The groups were divided to a control group treated only with an excipient, a positive control group treated with fenofibrate, and test groups treated with each of the compounds of Examples 5, 62 and 65, at dosage 100 mg/10 ml/kg body weight. Each of the test and control compounds was diluted with 0.5% CMC to a concentration to match the above dosage, and administered orally using a syringe into the stomach twice a day (9:00 and 18:00) for a period of 4 weeks, and the following characteristics were measured.
3) Measurement of Lipid Metabolism-Related Materials and Insulin Concentration in Blood
28 days after the administration, experimental mice were fasted for 16 hours, and the concentrations of lipid metabolism-related materials such as triglyceride, free fatty acid and cholesterol, and insulin in blood were measured. Specifically, a blood sample was collected from the ocular venous plexus of each mouse and centrifuged to separate plasma. The glucose (GLU), HDL-cholesterol (HDL), LDL-cholesterol (LDL), triglyceride (TG) and free fatty acid (NEFA) levels were measured by enzymatic assay using 2 kinds of Selectra (Vital Lab), an automatic biochemical analyzer, and the insulin concentration was measured by ELISA using an insulin detection kit (Shibayagi).

Structure (SMILES) | Activity at 25 μM Step 1 293T cell [1] | Activity at 25 μM Step 1 HepG2 cell [2] | also measured
CCN(c1cccc(C)c1)S(=O)(=O)N(CC(=O)O)Cc1cccc(OCCc2nc(-c3ccc(C(F)(F)F)cc3)oc2C)c1 [Example 80, [N—(N-ethyl-N-m-tolylamino)sulfonyl-N-[3-[2-[2-(4-trifluoromethylphenyl)-5-methyloxazol-4-yl]ethoxy]benzyl]amino]acetic acid] | 5 | 30 | 
Cc1oc(-c2ccc(C(F)(F)F)cc2)nc1CCOc1cccc(CN(CC(=O)O)S(=O)(=O)N(C)c2cccc(F)c2)c1 [Example 82, [N—[N-(3-fluorophenyl)-N-methylamino]sulfonyl-N-[3-[2-[2-(4-trifluoromethylphenyl)-5-methyloxazol-4-yl]ethoxy]benzyl]amino]acetic acid] | 2 | 26 | 
CCN(CC)S(=O)(=O)N(CC(=O)O)Cc1ccc(OCCc2nc(-c3ccc(C)cc3)oc2C)cc1 [Example 101, [N—(N,N-diethylamino)sulfonyl-N-[4-[2-[2-(4-methylphenyl)-5-methyloxazol-4-yl]ethoxy]benzyl]amino]acetic acid] | 4 | 45 | 
Cc1ccc(-c2nc(COc3cccc(CN([C@@H](C)C(=O)O)S(=O)(=O)N(C)C)c3)c(C)o2)cc1 [Example 124, (S)-2-[N—(N,N-dimethylamino)sulfonyl-N-[3-[(5-methyl-2-p-tolyloxazol-4-yl)methoxy]benzyl]amino]propionic acid] | 5 | 40 | 
Cc1ccc(-c2nc(COc3cccc(CN([C@H](C(=O)O)C(C)C)S(=O)(=O)N(C)C)c3)c(C)o2)cc1 [Example 125, (S)-3-methyl-2-[N—(N,N-dimethylamino)sulfonyl-N-[3-[(5-methyl-2-p-tolyloxazol-4-yl)methoxy]benzyl]amino]butyric acid] | 3 | 22 | 
Cc1ccc(-c2nc(COc3cccc(C(C)N(CC(=O)O)S(=O)(=O)N(C)C)c3)c(C)o2)cc1 (stereo not shown) [Example 126, [N—(N,N-dimethylamino)sulfonyl-N-[1-[[3-(5-methyl-2-p-tolyloxazol-4-yl)methoxy]phenyl]ethyl]amino]acetic acid] | 4 | 62 | 
Cc1ccc(-c2nc(COc3cccc(C(C)N(CC(=O)O)S(=O)(=O)N4CCCC4)c3)c(C)o2)cc1 (stereo not shown) [Example 127, [N-(pyrrolidinyl)sulfonyl-N-[1-[[3-(5-methyl-2-p-tolyloxazol-4-yl)methoxy]phenyl]ethyl]amino]acetic acid] | 3 | 50 | 
CCN(CC)S(=O)(=O)N(CC(=O)O)C(C)c1cccc(OCc2nc(-c3ccc(C)cc3)oc2C)c1 (stereo not shown) [Example 128, [N—(N,N-diethylamino)sulfonyl-N-[1-[[3-(5-methyl-2-p-tolyloxazol-4-yl)methoxy]phenyl]ethyl]amino]acetic acid] | 2 | 25 | 
Cc1ccc(-c2nc(COc3cccc(C(C)N(CC(=O)O)S(=O)(=O)N(C)C(C)C)c3)c(C)o2)cc1 (stereo not shown) [Example 129, [N—(N-isopropyl-N-methylamino)sulfonyl-N-[1-[[3-(5-methyl-2-p-tolyloxazol-4-yl)methoxy]phenyl]ethyl]amino]acetic acid] | 3 | 43 | 
Cc1ccc(-c2nc(COc3cccc(CN(CCC(=O)O)S(=O)(=O)N(C)C)c3)c(C)o2)cc1 [Example 130, 3-[N—(N,N-dimethylamino)sulfonyl-N-[3-[(5-methyl-2-p-tolyloxazol-4-yl)methoxy]benzyl]amino]propionic acid] | 4 | 36 | 
CC(C)OC(=O)C(C)(C)Oc1ccc(C(=O)c2ccc(Cl)cc2)cc1 [fenofibrate, reference compound] |  |  | GLU (glucose) [3]: 223.1 ± 77.2 mg/dL; HDL (HDL-cholesterol) [3]: 280.5 ± 28.5 mg/dL; LDL (LDL-cholesterol) [3]: 27.0 ± 4.7 mg/dL; NEFA (free fatty acid) [3]: 1,003 ± 80 UEq/l; TG (triglyceride) [3]: 49.4 ± 6.1 mg/dL

Continued, in another order:

Activity at 25 μM Step 1 293T cell [1] | Activity at 25 μM Step 1 HepG2 cell [2] | Structure (SMILES) | also measured
4 | 46 | Cc1ccc(-c2nc(CCOc3ccc(CN(CC(=O)O)S(=O)(=O)N(C)C(C)C)cc3)c(C)o2)cc1 [Example 102, [N—(N-isopropyl-N-methylamino)sulfonyl-N-[4-[2-[2-(4-methylphenyl)-5-methyloxazol-4-yl]ethoxy]benzyl]amino]acetic acid] | 
5 | 25 | CCN(c1cccc(C)c1)S(=O)(=O)N(CC(=O)O)Cc1ccc(OCCc2nc(-c3ccc(C)cc3)oc2C)cc1 [Example 111, [N—(N-ethyl-N-m-tolylamino)sulfonyl-N-[4-[2-[2-(4-methylphenyl)-5-methyloxazol-4-yl]ethoxy]benzyl]amino]acetic acid] | 
4 | 29 | Cc1ccc(-c2nc(CCOc3ccc(CN(CC(=O)O)S(=O)(=O)N(C)c4cccc(F)c4)cc3)c(C)o2)cc1 [Example 113, [N—[N-(3-fluorophenyl)-N-methylamino]sulfonyl-N-[4-[2-[2-(4-methylphenyl)-5-methyloxazol-4-yl]ethoxy]benzyl]amino]acetic acid] | 
5 | 41 | CN(C)S(=O)(=O)N(CC(=O)O)Cc1cccc(OCCc2coc(-c3ccccc3)n2)c1 [Example 131, [N—(N,N-dimethylarino)sulfonyl-N-[3-[(2-phenyloxazol-4-yl)ethoxy]benzyl]amino]acetic acid] | 
5 | 32 | CN(C)S(=O)(=O)N(CC(=O)O)Cc1ccc(OCCc2coc(-c3ccccc3)n2)cc1 [Example 132, [N—(N,N-dimethylamino)sulfonyl-N-[4-[(2-phenyloxazol-4-yl)ethoxy]benzyl]amino]acetic acid] | 
4 | 34 | CN(c1ccc(Cl)cc1)S(=O)(=O)N(CC(=O)O)Cc1ccc(OCCc2coc(-c3ccccc3)n2)cc1 [Example 133, [N—[[N-(4-chlorophenyl)-N-methyl]amino]sulfonyl-N-[4-[(2-phenyloxazol-4-yl)ethoxy]benzyl]amino]acetic acid] | 
